Results reported in US20250059174A1, “Pharmaceutical Compounds and Compositions as C-Kit Kinase Inhibitors” (Enanta Pharmaceuticals, Inc., priority 2023, published 2025).

Key:
[1] = target: Recombinant human c-KIT kinase (Homo sapiens (Human), UniProt P10721); assay: c-KIT kinase chemiluminescence assay (ADP-Glo); format: biochemical; conditions: ATP 50 μM
Method in brief: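 Recombinant human c-KIT preincubated 30 min at RT in 40 mM Tris pH 7.5, 20 mM MgCl2, 0.1 mg/mL BSA, 50 μM DTT, then reacted 2 h at RT with ATP and polyEY substrate. ADP-Glo luminescence readout; activity normalized to high/low controls, IC50 and Hill coefficient from inhibitor-versus-normalized-response fit.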

M-07e cells = assay: M-07e cellular assay (SCF-mediated cell proliferation); format: cell-based; conditions: Homo sapiens, 72 hours, CellTiter Glo
Method in brief: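 Readout came from CellTiter Glo after 72 h of compound treatment in SCF (EC90)-stimulated, pre-starved M-07e cells at 37 °C.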

Sequence of Recombinant human c-KIT kinase (P10721 26-976): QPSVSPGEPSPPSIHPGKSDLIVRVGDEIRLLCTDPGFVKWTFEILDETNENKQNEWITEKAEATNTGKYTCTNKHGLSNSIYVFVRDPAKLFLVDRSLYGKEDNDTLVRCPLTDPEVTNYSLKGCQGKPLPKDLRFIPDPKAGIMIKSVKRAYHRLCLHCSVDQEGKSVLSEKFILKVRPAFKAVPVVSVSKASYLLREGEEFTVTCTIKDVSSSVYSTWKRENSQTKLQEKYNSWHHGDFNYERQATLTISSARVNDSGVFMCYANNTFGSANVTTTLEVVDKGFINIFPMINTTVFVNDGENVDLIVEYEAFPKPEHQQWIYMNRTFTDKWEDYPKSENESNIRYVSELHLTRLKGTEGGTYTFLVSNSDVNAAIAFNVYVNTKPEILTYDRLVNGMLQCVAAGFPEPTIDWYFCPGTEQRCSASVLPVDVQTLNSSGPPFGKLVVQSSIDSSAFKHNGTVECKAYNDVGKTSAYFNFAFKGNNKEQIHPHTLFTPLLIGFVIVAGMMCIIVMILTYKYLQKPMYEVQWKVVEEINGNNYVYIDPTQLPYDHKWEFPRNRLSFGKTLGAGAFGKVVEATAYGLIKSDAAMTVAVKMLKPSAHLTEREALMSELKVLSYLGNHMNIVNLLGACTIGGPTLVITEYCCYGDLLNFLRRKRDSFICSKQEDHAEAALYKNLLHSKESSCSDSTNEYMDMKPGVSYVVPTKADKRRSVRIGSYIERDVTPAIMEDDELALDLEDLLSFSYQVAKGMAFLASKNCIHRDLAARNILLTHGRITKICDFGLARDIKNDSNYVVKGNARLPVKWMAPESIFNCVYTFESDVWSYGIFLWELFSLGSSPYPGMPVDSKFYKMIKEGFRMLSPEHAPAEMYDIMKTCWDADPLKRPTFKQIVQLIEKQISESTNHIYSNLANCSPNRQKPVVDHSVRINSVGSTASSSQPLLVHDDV

| SMILES | IC50 [1] | EC50 (M-07e cells) |
| --- | --- | --- |
| Cc1ncc(-c2ccn3ncc(C(=O)Nc4cc(-c5noc([C@H]6C[C@@H]6F)n5)ccc4C)c3c2)cn1 [Example 163] | < 100 nM | < 100 nM |
| Cc1ccc(-c2noc([C@H]3C[C@@H]3F)n2)cc1NC(=O)c1cnn2cc(F)c(-c3c(C)nn(CC(C)(C)O)c3C)cc12 [Example 164] | 100 to 1000 nM | 100 to 1000 nM |
| Cc1ccc(-c2noc([C@H]3C[C@@H]3F)n2)cc1NC(=O)c1cnn2cc(Cl)c(-c3c(C)nn(CC(C)(C)O)c3C)cc12 [Example 165] | > 1000 nM | 100 to 1000 nM |
| Cc1ccc(-c2noc([C@H]3C[C@@H]3F)n2)cc1NC(=O)c1cnn2cc(F)c(-c3c(C)nn(C(F)F)c3C)cc12 [Example 166] | > 1000 nM | 100 to 1000 nM |
| Cc1ccc(-c2noc([C@H]3C[C@@H]3F)n2)cc1NC(=O)c1cnn2ccc(C3CC4(C3)CC(F)(F)C4)cc12 [Example 167-1] | < 100 nM | < 100 nM |
| Cc1ccc(-c2noc([C@H]3C[C@@H]3F)n2)cc1NC(=O)c1cnn2cc(Cl)c(-c3c(C)nn(C(F)F)c3C)cc12 [Example 167] | > 1000 nM | > 1000 nM |
| Cc1ncc(-c2ccc3c(C(=O)Nc4cc(-c5noc([C@H]6C[C@@H]6F)n5)ccc4C)cnn3c2)c(C)n1 [Example 169] | 100 to 1000 nM | 100 to 1000 nM |
| Cc1nc(C)c(-c2ccn3ncc(C(=O)Nc4cc(-c5noc([C@H]6C[C@@H]6F)n5)ccc4C)c3c2)s1 [Example 170] | < 100 nM | < 100 nM |
| Cc1ccc(-c2noc([C@H]3C[C@@H]3F)n2)cc1NC(=O)c1cnn2ccc(-c3nnc(N)nc3C)cc12 [Example 171-1] | < 100 nM | < 100 nM |
| Cc1cc(C)c(-c2ccn3ncc(C(=O)Nc4cc(-c5noc([C@H]6C[C@@H]6F)n5)ccc4C)c3c2)c(C)c1 [Example 171-2] | > 1000 nM | > 1000 nM |
| Cc1cc(C)c(-c2ccn3ncc(C(=O)Nc4cc(-c5noc([C@H]6C[C@@H](OC(F)(F)F)C6)n5)ccc4C)c3c2)c(C)c1 [Example 171-3] | > 1000 nM | > 1000 nM |
| Cc1nc(C)c(-c2ccn3ncc(C(=O)Nc4cc(-c5noc([C@H]6C[C@@H]6F)n5)ccc4C)c3c2)c(C)n1 [Example 171-4] | 100 to 1000 nM | 100 to 1000 nM |
| Cc1nc(C)c(-c2ccn3ncc(C(=O)Nc4cc(-c5noc([C@H]6C[C@@H](OC(F)(F)F)C6)n5)ccc4C)c3c2)c(C)n1 [Example 171-5] | 100 to 1000 nM | 100 to 1000 nM |
| Cc1ccc(-c2noc([C@H]3C[C@@H]3F)n2)cc1NC(=O)c1cnn2ccc(-c3c(C)nc(N)nc3C)cc12 [Example 171-6] | 100 to 1000 nM | < 100 nM |
| Cc1ccc(-c2noc([C@H]3C[C@@H](OC(F)(F)F)C3)n2)cc1NC(=O)c1cnn2ccc(-c3c(C)nc(N)nc3C)cc12 [Example 171-7] | 100 to 1000 nM | 100 to 1000 nM |
| Cc1ccc(-c2noc([C@H]3C[C@@H]3F)n2)cc1NC(=O)c1cnn2ccc(-c3c(C)nc(Cl)nc3C)cc12 [Example 171-8] | 100 to 1000 nM | 100 to 1000 nM |
| Cc1ccc(-c2noc([C@H]3C[C@@H]3F)n2)cc1NC(=O)c1cnn2ccc(-c3cnccn3)cc12 [Example 171-9] | < 100 nM | < 100 nM |
| Cc1ncc(-c2noc([C@H]3C[C@@H]3F)n2)cc1NC(=O)c1cnn2ccc(-c3c(C)nc(N)nc3C)cc12 [Example 171-10] | > 1000 nM | > 1000 nM |
| Cc1ccc(-c2noc([C@H]3C[C@@H]3F)n2)cc1NC(=O)c1cnn2ccc(-c3c(C)nc(N4CCC4)nc3C)cc12 [Example 171-12] | 100 to 1000 nM | 100 to 1000 nM |
| Cc1ccc(-c2noc([C@H]3C[C@@H]3F)n2)cc1NC(=O)c1cnn2ccc(-c3c(C)nc(N4CC(F)(F)C4)nc3C)cc12 [Example 171-13] | 100 to 1000 nM | 100 to 1000 nM |
| Cc1ccc(-c2noc([C@H]3C[C@@H]3F)n2)cc1NC(=O)c1cnn2ccc(-c3c(C)nc(N4CC5(COC5)C4)nc3C)cc12 [Example 171-14] | 100 to 1000 nM | 100 to 1000 nM |
| Cc1ccc(-c2ccn3ncc(C(=O)Nc4cc(-c5noc([C@H]6C[C@@H]6F)n5)ccc4C)c3c2)c(C)n1 [Example 171-15] | < 100 nM | < 100 nM |
| Cc1ccc(-c2noc([C@H]3C[C@@H]3F)n2)cc1NC(=O)c1cnn2ccc(-c3ccc(C#N)nc3C)cc12 [Example 171-16] | < 100 nM | < 100 nM |
| Cc1ccc(-c2noc([C@H]3C[C@@H]3F)n2)cc1NC(=O)c1cnn2ccc(-c3ccc(N4CC(F)(F)C4)nc3C)cc12 [Example 171-17] | < 100 nM | < 100 nM |
| Cc1ccc(-c2noc([C@H]3C[C@@H]3F)n2)cc1NC(=O)c1cnn2ccc(-c3ccc(N4CCOCC4)nc3C)cc12 [Example 171-18] | < 100 nM | < 100 nM |
| Cc1ccc(-c2noc([C@H]3C[C@@H]3F)n2)cc1NC(=O)c1cnn2ccc(-c3ccc(N4CC5(COC5)C4)nc3C)cc12 [Example 171-19] | < 100 nM | < 100 nM |

| SMILES | IC50 [1] | EC50 (M-07e cells) |
| --- | --- | --- |
| COc1ccc(-c2ccn3ncc(C(=O)Nc4cc(-c5noc([C@H]6C[C@@H]6F)n5)ccc4C)c3c2)c(C)n1 [Example 171-20] | < 100 nM | < 100 nM |
| Cc1ccc(-c2noc([C@H]3C[C@@H]3F)n2)cc1NC(=O)c1cnn2ccc(-c3cc(C(F)(F)F)nn3C)cc12 [Example 171-22] | 100 to 1000 nM | 100 to 1000 nM |
| Cc1ccc(-c2noc([C@H]3C[C@@H]3F)n2)cc1NC(=O)c1cnn2ccc(-c3cc(C(F)(F)F)nn3C(C)C)cc12 [Example 171-23] | > 1000 nM | > 1000 nM |
| Cc1ccc(-c2noc([C@H]3C[C@@H]3F)n2)cc1NC(=O)c1cnn2ccc(-c3cnc(N4CC(F)(F)C4)cc3C)cc12 [Example 171-24] | < 100 nM | < 100 nM |
| Cc1ccc(-c2noc([C@H]3C[C@@H]3F)n2)cc1NC(=O)c1cnn2ccc(-c3cnc(N4CC5(COC5)C4)cc3C)cc12 [Example 171-25] | < 100 nM | < 100 nM |
| Cc1cc(C)c(-c2ccn3ncc(C(=O)Nc4cc(-c5noc([C@H]6C[C@@H]6F)n5)ccc4C)c3c2)cn1 [Example 171-26] | < 100 nM | < 100 nM |
| Cc1ccc(-c2noc([C@H]3C[C@@H]3F)n2)cc1NC(=O)c1cnn2ccc(-c3cnc(N)cc3C)cc12 [Example 171-28] | < 100 nM | < 100 nM |
| Cc1ccc(-c2noc([C@H]3C[C@@H]3F)n2)cc1NC(=O)c1cnn2ccc(-c3ccc(N)nc3C)cc12 [Example 171-29] | < 100 nM | < 100 nM |
| Cc1cnc(-c2ccn3ncc(C(=O)Nc4cc(-c5noc([C@H]6C[C@@H]6F)n5)ccc4C)c3c2)c(C)n1 [Example 171-30] | < 100 nM | < 100 nM |
| CC(=O)Nc1nc(C)c(-c2ccn3ncc(C(=O)Nc4cc(-c5noc([C@H]6C[C@@H]6F)n5)ccc4C)c3c2)c(C)n1 [Example 171-31] | 100 to 1000 nM | < 100 nM |
| Cc1nccc(-c2ccn3ncc(C(=O)Nc4cc(-c5noc([C@H]6C[C@@H]6F)n5)ccc4C)c3c2)n1 [Example 171] | < 100 nM | < 100 nM |
| Cc1ccc(-c2noc([C@H]3C[C@@H]3F)n2)cc1NC(=O)c1cnn2ccc(N3CCC4(COC4)C3)cc12 [Example 173] | < 100 nM | < 100 nM |
| Cc1ccc(-c2noc([C@H]3C[C@@H]3F)n2)cc1NC(=O)c1cnn2ccc(N3C[C@@H](CS(C)(=O)=O)[C@@H]3C)cc12 [Example 174] | < 100 nM | < 100 nM |
| Cc1ccc(-c2noc([C@H]3C[C@@H]3F)n2)cc1NC(=O)c1cnn2ccc(N3C[C@@H](CS(C)(=O)=O)[C@H]3C)cc12 [Example 175] | < 100 nM | < 100 nM |
| Cc1ccc(-c2noc([C@H]3C[C@@H]3F)n2)cc1NC(=O)c1cnn2ccc(N3CCC34COC4)cc12 [Example 176] | < 100 nM | < 100 nM |
| Cc1ccc(-c2noc([C@H]3C[C@@H]3F)n2)cc1NC(=O)c1cnn2ccc(N3CC4(CN(CC(F)(F)F)C4)C3)cc12 [Example 177] | < 100 nM | < 100 nM |
| Cc1ccc(-c2noc([C@H]3C[C@@H]3F)n2)cc1NC(=O)c1cnn2ccc(N3CC4(CNC(=O)C4)C3)cc12 [Example 178] | < 100 nM | < 100 nM |
| Cc1ccc(-c2noc([C@H]3C[C@@H]3F)n2)cc1NC(=O)c1cnn2ccc(N3CC(C(C)(C)O)C3)cc12 [Example 179] | < 100 nM | < 100 nM |
| Cc1ccc(-c2noc([C@H]3C[C@@H]3F)n2)cc1NC(=O)c1cnn2ccc(N3CC(O)(C(F)(F)F)C3)cc12 [Example 180] | < 100 nM | < 100 nM |
| Cc1ccc(-c2noc([C@H]3C[C@@H]3F)n2)cc1NC(=O)c1cnn2ccc(N3CC4(C3)CC(C)(O)C4)cc12 [Example 181] | < 100 nM | < 100 nM |
| Cc1ccc(-c2noc([C@H]3C[C@@H]3F)n2)cc1NC(=O)c1cnn2ccc(N3CC(CO)(CCl)C3)cc12 [Example 182] | < 100 nM | < 100 nM |
| Cc1ccc(-c2noc([C@H]3C[C@@H]3F)n2)cc1NC(=O)c1cnn2ccc(N3CC4(CCOC4)C3)cc12 [Example 183] | < 100 nM | < 100 nM |
| Cc1ccc(-c2noc([C@H]3C[C@@H]3F)n2)cc1NC(=O)c1cnn2ccc(N3CCC4(CC3)CC(C)(O)C4)cc12 [Example 184] | < 100 nM | < 100 nM |
| Cc1ccc(-c2noc([C@H]3C[C@@H]3F)n2)cc1NC(=O)c1cnn2ccc(N3CC4(CCN(CC(F)F)C4)C3)cc12 [Example 185] | < 100 nM | < 100 nM |
| COC1CC2(C1)CN(c1ccn3ncc(C(=O)Nc4cc(-c5noc([C@H]6C[C@@H]6F)n5)ccc4C)c3c1)C2 [Example 186] | < 100 nM | < 100 nM |
| Cc1ccc(-c2noc([C@H]3C[C@@H]3F)n2)cc1NC(=O)c1cnn2ccc(N3CC4(C3)CS(=O)(=O)C4)cc12 [Example 187] | < 100 nM | < 100 nM |
